The results in this text go back to patent US10808017B2, “Ubiquitin variants and uses therof as 53BP1 inhibitors” (The Governing Council of the University of Toronto, priority 2016, dated 2020).

In assay [1] the target is T1, WDR96 (Homo sapiens, UniProt Q8NDM7).
T1 construct: Following immunoprecipitation of Flag-tagged i53 and i-53-DM from HEK293 Flp-In/T-REx cells, peptides were identified using LC-MS/MS; endogenous in cells; host or cells: HEK293 Flp-In/T-REx cells
In words: Flag IP-MS of i53/i53-DM baits: prey WDR96. Format: binding. The following applies: 293T Flp-In/T-Rex extracts, LC-MS/MS, one column per replicate IP. As for the experimental part:
(§1) Following immunoprecipitation of Flag-tagged i53 and i-53-DM from HEK293 Flp-In/T-REx cells, peptides were identified using LC-MS/MS. Proteins were digested in solution with trypsin (Sigma, T7575-1KT) and dried to completeness. For LC-MS/MS analysis, peptides were reconstituted in 5% formic acid and loaded onto a 12-15 cm fused silica column with pulled tip packed in-house with 3.5 μm Zorbax C18 (Agilent Technologies, Calif., USA).
(§2) i53 and i53-DM precipitates were analyzed using an LTQ (Thermo Scientific) coupled to an Agilent 1100 Series HPLC (Agilent Technologies). Peptides were eluted from the column using a 90 min period cycle with a linear gradient from 0% to 40% ACN in 0.1% formic acid. Tandem MS spectra were acquired in a data-dependent mode for the top 5 (LTQ) most abundant ions using collision-induced dissociation. Acquired spectra were searched against the human Refseq_V53 database using Mascot (Matrix Science).
(§3) 293T Flp-In/T-Rex cell lines were generated that expressed Flag-tagged i53 or i53-DM under the control of a tetracycline-inducible promoter as previously described. Nine IP-MS experiments were analyzed (3 biological replicate IPs each for control i53- and i53-DM expressing cell lines). The interacting proteins were identified by MASCOT to identify high-confidence interactors for i53. […]

The subject of assay [2] is RAB34. The assay is described as follows: Flag IP-MS of i53/i53-DM baits: prey RAB34. The note with it: 293T Flp-In/T-Rex extracts, LC-MS/MS, one column per replicate IP. Format: binding, human. As for the experimental part:
as §1, §2, §3

Assay [3] deals with gene targeting at the LMNA locus in U2OS cells. In words: LMNA mClover gene targeting assay (CRISPR/Cas9). In kind it is cell-based. As for the experimental part:
FIG. 4. Activation of HR by i53. FIG. 4A, Schematic of the DR-GFP assay. FIG. 4B. U2OS DR-GFP cells were transfected with the vectors expressing i53, the DM mutant or an empty vector control (EV) along with an I-Scel expression vector. The percentage of GFP-positive cells was determined 48 h post-transfection for each condition and was normalized to the empty vector condition (mean±s.d., N=4). FIG. 4C, U2OS DR-GFP were first transfected with siRNAs targeting the 53BP1 or BRCA1 mRNAs along with a non-targeting siRNA (CTRL). 24 h post-transfection, cells were transfected with the I-SceI expression vector and the percentage of GFP-positive cells was determined 48 h post-siRNA transfection for each condition. The values were normalized to the empty vector condition and presented as the mean±s.e.m; N=4. FIG. 4D, Schematic of the gene targeting assay. FIG. 4E, Gene targeting efficiency at the LMNA locus in parental or 53BP1Δ U2OS cells following transfection with vectors expressing Flag-tagged i53 or its DM mutant or an empty vector control (EV). The DNA-PK inhibitor NU7441 was also added where indicated. 24 h post-transfection, cells were analysed for mClover fluorescence. Individual experiments are presented with the error bar representing the s.d., (N=3). FIG. 4F, Gene targeting at the LMNA locus in G 1-arrested parental (WT) or 53BP1Δ U2OS cells transfected with vectors expressing Flag-tagged i53 or its DM mutant or an empty vector control (EV). The DNA-PK inhibitor NU7441 was also added in the indicated conditions. 24 h post-transfection, cells were analysed for mClover fluorescence. Individual experiments are present with the error bar representing the s.d., (N=3).
The Lamin A (LMNA) assay to measure the frequency of introduction of the coding sequence for mClover at the 5′ end of LMNA using the CRISPR/Cas9 was performed as previously described4. Parental or 53BP1Δ U2OS cell lines were transfected with the indicated plasmids using Lipofectamine RNAiMAX (Invitrogen). 24 h later, the cells were electroporated with 2.5 μg of sgRNA plasmids and 2.5 μg of donor template using a Nucleofector (Lonza; protocol X-001). Parental or 53BP1Δ U2OS cells stably expressing CtIP-T847E mutant were transfected with an siRNA against KEAP1 and the indicated plasmids and processed as previously described.

Entries after “also recorded” stand apart in the source; their conditions may differ.

T1 sequence (Q8NDM7 whole entry): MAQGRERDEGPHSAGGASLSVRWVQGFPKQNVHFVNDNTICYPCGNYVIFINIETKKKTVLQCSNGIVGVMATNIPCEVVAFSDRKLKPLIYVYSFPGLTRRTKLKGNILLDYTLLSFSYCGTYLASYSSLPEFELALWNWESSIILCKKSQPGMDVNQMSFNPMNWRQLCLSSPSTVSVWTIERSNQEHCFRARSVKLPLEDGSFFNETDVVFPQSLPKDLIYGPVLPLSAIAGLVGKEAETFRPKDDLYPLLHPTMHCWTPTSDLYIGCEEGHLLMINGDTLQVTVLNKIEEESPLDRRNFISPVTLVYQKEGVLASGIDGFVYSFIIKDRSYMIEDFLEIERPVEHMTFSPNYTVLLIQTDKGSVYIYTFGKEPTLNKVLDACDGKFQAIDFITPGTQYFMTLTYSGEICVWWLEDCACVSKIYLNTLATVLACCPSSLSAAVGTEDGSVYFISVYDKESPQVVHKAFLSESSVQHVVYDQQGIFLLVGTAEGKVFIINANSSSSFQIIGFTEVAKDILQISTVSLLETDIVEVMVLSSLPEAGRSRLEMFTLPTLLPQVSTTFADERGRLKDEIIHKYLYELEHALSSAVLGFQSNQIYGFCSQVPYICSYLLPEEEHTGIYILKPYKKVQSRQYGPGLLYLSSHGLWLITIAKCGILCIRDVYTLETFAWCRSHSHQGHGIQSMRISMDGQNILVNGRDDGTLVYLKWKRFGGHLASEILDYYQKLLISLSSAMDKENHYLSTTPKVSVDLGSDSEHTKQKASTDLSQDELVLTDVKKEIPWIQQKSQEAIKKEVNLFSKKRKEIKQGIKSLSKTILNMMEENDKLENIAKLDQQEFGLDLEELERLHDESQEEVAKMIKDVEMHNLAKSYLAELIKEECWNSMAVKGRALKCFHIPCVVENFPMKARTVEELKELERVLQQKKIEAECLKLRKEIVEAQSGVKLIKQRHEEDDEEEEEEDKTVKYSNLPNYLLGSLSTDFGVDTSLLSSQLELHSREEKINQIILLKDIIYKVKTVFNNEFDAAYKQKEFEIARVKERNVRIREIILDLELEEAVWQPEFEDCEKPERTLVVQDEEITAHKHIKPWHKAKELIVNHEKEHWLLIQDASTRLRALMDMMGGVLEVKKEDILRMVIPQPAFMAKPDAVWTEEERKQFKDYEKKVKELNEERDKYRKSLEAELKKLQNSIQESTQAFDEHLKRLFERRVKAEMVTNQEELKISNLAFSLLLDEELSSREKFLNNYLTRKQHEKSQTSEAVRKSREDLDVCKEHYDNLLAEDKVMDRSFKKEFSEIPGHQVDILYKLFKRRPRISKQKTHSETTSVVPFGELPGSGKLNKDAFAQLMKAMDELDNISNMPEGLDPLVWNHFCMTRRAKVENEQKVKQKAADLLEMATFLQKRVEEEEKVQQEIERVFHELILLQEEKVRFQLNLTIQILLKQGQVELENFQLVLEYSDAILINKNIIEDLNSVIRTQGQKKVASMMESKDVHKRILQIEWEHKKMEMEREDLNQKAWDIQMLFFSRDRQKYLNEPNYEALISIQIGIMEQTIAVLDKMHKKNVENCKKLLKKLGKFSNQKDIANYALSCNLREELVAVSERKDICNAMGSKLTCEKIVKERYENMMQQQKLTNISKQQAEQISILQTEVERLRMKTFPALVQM

For the substance “i53-DM: 53BP1-binding deficient mutant of i53 (P69L, L70V)”, the “Total peptides, WDR96” value in assay [1] was 4. For the same substance, the “Total peptides, RAB34” value in assay [2] is 2.
As to “i53: UbvG08 with C-terminal di-glycine removed and I44A mutation; genetically encoded inhibitor of 53BP1”, the “Gene targeting at the LMNA locus in 53BP1Δ cells” value in assay [3] (53BP1Δ U2OS cells) was “did not result in a further increase in gene targeting”. Moreover, the “Cas9-stimulated gene targeting at the LMNA locus in G1” value in assay [3] (G1-arrested U2OS cells expressing CtIP-T847E, KEAP1 siRNA, compared with 53BP1 knockout) was “nearly as efficient as the 53BP1 knockout”. Moreover, the “Gene targeting at the LMNA locus, i53 combined with DNA-PK inhibition” value in assay [3] (i53 plus NU7441 (10 μM)) is “additive increase in gene targeting”. For the same substance, in assay [3] (parental U2OS cells, NU7441 at 10 μM), the “Change of gene targeting at the LMNA locus (in words)” value is recorded as “nearly two-fold; also recorded: approached that of 53BP1-null cells”. Moreover, the “Gene targeting efficiency at the LMNA locus (mClover-positive cells)” value in assay [3] (parental U2OS cells, empty vector control 4.79% +/−0.5%) turned out to be 8.58%.
